This passage reports Activity and TIME results from ChEMBL document CHEMBL2021805, “Structural polymorphism of human telomere G-quadruplex induced by a pyridyl carboxamide molecule” (Bioorg Med Chem Lett, 2012).

Holding throughout (type): nucleic-acid assay
Test [1] deals with Nucleic Acid. Put plainly: Stabilization of human hybrid-type G-quadruplex G4A in 100 mM Na+ solution at room temperature assessed as formation of anti-parallel structure at 60 uM by CD spectroscopy.
For test [2], the system named is Nucleic Acid. The experiment in a line: Binding affinity to human G-quadruplex FAM-21G at 20 uM by native PAGE analysis.
The subject of test [3] is Nucleic Acid. The experiment in a line: Stabilization of human G-quadruplex G4A in 100 mM K+ solution assessed as formation of stable parallel structure measuring transformation rate constant at 60 uM after 1 day at 37 degC by CD spectroscopy.
In test [4] the test system is Nucleic Acid. The experiment in a line: Stabilization of human G-quadruplex G4A in 100 mM K+ solution assessed as time required to the formation of stable parallel structure at 60 uM at 37 degC by CD spectroscopy.
Test [5] has as its system Nucleic Acid. Put plainly: Stabilization of human G-quadruplex G4A in 100 mM K+ solution assessed as time required to the formation of stable snti-parallel quadruplex structure at 60 uM at 37 degC by CD spectroscopy.
Test [6] relates to Nucleic Acid. The experiment in a line: Stabilization of human hybrid-type G-quadruplex G4A in 100 mM K+ solution at room temperature assessed as formation of anti-parallel structure at 60 uM by CD spectroscopy.
The subject of test [7] is Nucleic Acid. Put plainly: Stabilization of human G-quadruplex G4A in 100 mM K+ solution assessed as formation of stable parallel structure at 60 uM after heating at 95 degC and cooling to room temperature by CD spectroscopy.
For test [8], the system named is Nucleic Acid. Put plainly: Stabilization of human G-quadruplex G4A in 100 mM K+ solution assessed as formation of stable parallel structure at 60 uM after 1 day at 37 degC by CD spectroscopy.
Test [9] relates to Nucleic Acid. Put plainly: Binding affinity to human G-quadruplex FAM-21G at 10 uM after 2 to 24 hrs by native PAGE analysis.
In test [10] the test system is Nucleic Acid. Put plainly: Binding affinity to human G-quadruplex Ap-6 substituted 21G assessed as fluorescence quenching using ascorbic acid at 5 uM up to 1 hr by fluorescence analysis.
Test [11] concerns Nucleic Acid. Put plainly: Binding affinity to human G-quadruplex Ap-12 substituted 21G assessed as fluorescence quenching using ascorbic acid at 5 uM up to 1 hr by fluorescence analysis.
Test [12] relates to Nucleic Acid. Put plainly: Binding affinity to human G-quadruplex Ap-18 substituted 21G assessed as fluorescence quenching using ascorbic acid at 5 uM up to 1 hr by fluorescence analysis.
Test [13] relates to Nucleic Acid. The experiment in a line: Binding affinity to human G-quadruplex Ap-6 substituted 21G at 5 uM up to 1 hr by fluorescence analysis.
Test [14] deals with Nucleic Acid. The experiment in a line: Binding affinity to human G-quadruplex Ap-12 substituted 21G at 5 uM up to 1 hr by fluorescence analysis.
In test [15] the test system is Nucleic Acid. The experiment in a line: Binding affinity to human G-quadruplex Ap-18 substituted 21G at 5 uM up to 1 hr by fluorescence analysis.

Active and inactive are the calls of the source. No cut-off for these calls is given here.

Take `C[N+]1(CC(=O)Nc2cccc(NC(=O)c3cccc(C(=O)Nc4cccc(NC(=O)C[N+]5(C)CCCCC5)n4)n3)n2)CCCCC1`: the outcome in test [1] was inactive. The outcome in test [2], in test [6], in [7], in test [9], in [10] and in [11] was Active. Also, the outcome in test [12], in [13], in [14] and in test [15] was Active. Also, the Activity in [3] came out at 6.2 ×10⁻⁵ /s; in test [8], 99%. In addition, the results for the TIME in test [4] and in test [5] were 20 h and 3 h, respectively.
